ChEMBL document CHEMBL1177732, “Triterpene saponins from Clematis chinensis and their potential anti-inflammatory activity” (J Nat Prod, 2010)

Tests used:
[1] = target: T1, Prostaglandin G/H synthase 2 (Homo sapiens, UniProt P35354); test: Inhibition of COX2 by microplate reader
T1 sequence (P35354 whole entry): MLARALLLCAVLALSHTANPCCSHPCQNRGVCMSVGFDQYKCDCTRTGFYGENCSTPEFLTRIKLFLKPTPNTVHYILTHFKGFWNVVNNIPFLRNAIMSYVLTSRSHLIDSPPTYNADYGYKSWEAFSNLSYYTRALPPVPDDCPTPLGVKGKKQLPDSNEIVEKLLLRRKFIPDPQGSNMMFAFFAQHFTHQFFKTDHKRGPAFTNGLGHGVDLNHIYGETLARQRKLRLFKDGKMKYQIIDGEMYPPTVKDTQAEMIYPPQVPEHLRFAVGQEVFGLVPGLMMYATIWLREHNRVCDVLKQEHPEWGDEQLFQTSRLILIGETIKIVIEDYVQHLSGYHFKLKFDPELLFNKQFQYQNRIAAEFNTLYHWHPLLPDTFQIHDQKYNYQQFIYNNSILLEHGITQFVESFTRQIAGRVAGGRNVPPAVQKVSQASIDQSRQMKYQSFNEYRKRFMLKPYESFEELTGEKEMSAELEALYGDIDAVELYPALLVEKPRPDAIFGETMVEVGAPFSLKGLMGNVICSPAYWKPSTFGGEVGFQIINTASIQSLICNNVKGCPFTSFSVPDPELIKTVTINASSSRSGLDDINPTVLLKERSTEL

[2] = target: Prostaglandin G/H synthase 1 (Homo sapiens, UniProt P23219); test: Inhibition of COX1 by microplate reader
Prostaglandin G/H synthase 1, sequence (P23219 whole entry): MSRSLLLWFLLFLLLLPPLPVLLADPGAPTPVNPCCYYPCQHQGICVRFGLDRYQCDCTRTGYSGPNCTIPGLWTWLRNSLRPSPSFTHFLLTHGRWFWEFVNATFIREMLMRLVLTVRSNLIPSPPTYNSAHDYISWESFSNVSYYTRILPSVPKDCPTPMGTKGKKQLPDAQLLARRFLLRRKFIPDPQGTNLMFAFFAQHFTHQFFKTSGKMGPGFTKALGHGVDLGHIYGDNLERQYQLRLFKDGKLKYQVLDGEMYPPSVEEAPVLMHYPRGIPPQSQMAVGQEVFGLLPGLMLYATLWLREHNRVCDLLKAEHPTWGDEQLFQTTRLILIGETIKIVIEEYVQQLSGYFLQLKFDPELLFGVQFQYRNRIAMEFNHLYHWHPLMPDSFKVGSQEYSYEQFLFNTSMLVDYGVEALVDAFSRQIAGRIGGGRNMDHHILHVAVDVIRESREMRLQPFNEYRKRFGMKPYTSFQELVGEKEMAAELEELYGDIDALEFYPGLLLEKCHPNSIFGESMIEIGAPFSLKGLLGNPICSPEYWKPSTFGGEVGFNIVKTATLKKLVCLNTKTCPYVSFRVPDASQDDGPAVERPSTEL

Compound	IC50 [1] [µM]	IC50 [2] [µM]
COc1ccc(/C=C/C(=O)O[C@H]2[C@H](O[C@H]3[C@H](O)[C@@H](O)[C@H](O[C@@H]4CO[C@@H](O[C@@H]5[C@@H](O)[C@H](C)O[C@@H](O[C@H]6[C@H](O[C@H]7CC[C@@]8(C)[C@@H](CC[C@]9(C)[C@@H]8CC=C8[C@@H]%10CC(C)(C)CC[C@]%10(C(=O)O[C@@H]%10O[C@H](CO[C@@H]%11O[C@H](CO)[C@@H](O[C@@H]%12O[C@@H](C)[C@H](O)[C@@H](O)[C@H]%12O)[C@H](O)[C@H]%11O)[C@@H](O)[C@H](O)[C@H]%10O)CC[C@]89C)[C@]7(C)CO)OC[C@@H](O)[C@@H]6O)[C@@H]5O)[C@H](O)[C@@H]4O)O[C@@H]3CO)O[C@H](CO)[C@@H](O)[C@@H]2O[C@@H]2O[C@H](CO[C@@H]3O[C@@H](C)[C@H](O)[C@@H](O)[C@H]3O[C@@H]3O[C@H](CO)[C@@H](O)[C@H](O)[C@H]3O)[C@@H](O)[C@H](O)[C@H]2O)cc1O [CLEMATOCHINENOSIDE A]	6.7	7.8
C[C@@H]1O[C@@H](O[C@H]2[C@H](O)[C@@H](O)[C@H](OC[C@H]3O[C@@H](OC(=O)[C@]45CCC(C)(C)C[C@H]4C4=CC[C@@H]6[C@@]7(C)CC[C@H](O[C@@H]8OC[C@H](O)[C@H](O)[C@H]8O[C@@H]8O[C@@H](C)[C@H](O)[C@@H](O[C@@H]9OC[C@@H](O[C@@H]%10O[C@H](CO)[C@@H](O)[C@H](O)[C@H]%10O)[C@@H](O)[C@H]9O)[C@H]8O)C(C)(C)[C@@H]7CC[C@@]6(C)[C@]4(C)CC5)[C@H](O)[C@@H](O)[C@@H]3O)O[C@@H]2CO)[C@H](O)[C@H](O)[C@H]1O [CLEMATICHINENOSIDE C]	> 50	> 50
COc1ccc(/C=C/C(=O)OC[C@H]2O[C@@H](O[C@H]3[C@H](O)[C@@H](O)[C@H](O[C@@H]4CO[C@@H](O[C@@H]5[C@@H](O)[C@H](C)O[C@@H](O[C@H]6[C@H](O[C@H]7CC[C@@]8(C)[C@@H](CC[C@]9(C)[C@@H]8CC=C8[C@@H]%10CC(C)(C)CC[C@]%10(C(=O)O[C@@H]%10O[C@H](CO[C@@H]%11O[C@H](CO)[C@@H](O[C@@H]%12O[C@@H](C)[C@H](O)[C@@H](O)[C@H]%12O)[C@H](O)[C@H]%11O)[C@@H](O)[C@H](O)[C@H]%10O)CC[C@]89C)[C@]7(C)CO)OC[C@@H](O)[C@@H]6O)[C@@H]5O)[C@H](O)[C@@H]4O)O[C@@H]3CO)[C@H](O)[C@@H](O)[C@@H]2O)cc1O [CLEMATOCHINENOSIDE E]	7.9	8.9
COc1ccc(/C=C/C(=O)OC[C@H]2O[C@@H](O[C@H]3[C@H](O)[C@@H](O)[C@H](O[C@@H]4CO[C@@H](O[C@@H]5[C@@H](O)[C@H](C)O[C@@H](O[C@H]6[C@H](O[C@H]7CC[C@]8(C)[C@H]9CC=C%10[C@@H]%11CC(C)(C)CC[C@]%11(C(=O)O[C@@H]%11O[C@H](CO[C@@H]%12O[C@H](CO)[C@@H](O[C@@H]%13O[C@@H](C)[C@H](O)[C@@H](O)[C@H]%13O)[C@H](O)[C@H]%12O)[C@@H](O)[C@H](O)[C@H]%11O)CC[C@@]%10(C)[C@]9(C)CC[C@H]8C7(C)C)OC[C@@H](O)[C@@H]6O)[C@@H]5O)[C@H](O)[C@@H]4O)O[C@@H]3CO)[C@H](O)[C@@H](O)[C@@H]2O)cc1O [CLEMATOCHINENOSIDE F]	7.2	7.8
C[C@@H]1O[C@@H](O[C@H]2[C@H](O)[C@@H](O)[C@H](OC[C@H]3O[C@@H](OC(=O)[C@]45CCC(C)(C)C[C@H]4C4=CC[C@@H]6[C@@]7(C)CC[C@H](O[C@@H]8OC[C@H](O)[C@H](O)[C@H]8O[C@@H]8O[C@@H](C)[C@H](O)[C@@H](O[C@@H]9OC[C@@H](O[C@@H]%10O[C@H](CO)[C@@H](O[C@@H]%11O[C@H](CO)[C@@H](O)[C@H](O)[C@H]%11O)[C@H](O)[C@H]%10O)[C@@H](O)[C@H]9O)[C@H]8O)[C@@](C)(CO)[C@@H]7CC[C@@]6(C)[C@]4(C)CC5)[C@H](O)[C@@H](O)[C@@H]3O)O[C@@H]2CO)[C@H](O)[C@H](O)[C@H]1O	> 50	> 50
C[C@@H]1O[C@@H](O[C@H]2[C@H](O[C@H]3CC[C@]4(C)[C@H]5CC=C6[C@@H]7CC(C)(C)CC[C@]7(C(=O)O[C@@H]7O[C@H](CO[C@@H]8O[C@H](CO)[C@@H](O[C@@H]9O[C@@H](C)[C@H](O)[C@@H](O)[C@H]9O)[C@H](O)[C@H]8O)[C@@H](O)[C@H](O)[C@H]7O)CC[C@@]6(C)[C@]5(C)CC[C@H]4C3(C)CO)OC[C@H](O)[C@@H]2O)[C@H](O)[C@H](O)[C@H]1O (some centres undefined) [KIZUTA SAPONIN K12]	> 50	> 50
COc1ccc(/C=C/C(=O)O[C@H]2[C@H](O[C@H]3[C@H](O)[C@@H](O)[C@H](O[C@@H]4CO[C@@H](O[C@@H]5[C@@H](O)[C@H](C)O[C@@H](O[C@H]6[C@H](O[C@H]7CC[C@]8(C)[C@H]9CC=C%10[C@@H]%11CC(C)(C)CC[C@]%11(C(=O)O[C@@H]%11O[C@H](CO[C@@H]%12O[C@H](CO)[C@@H](O[C@@H]%13O[C@@H](C)[C@H](O)[C@@H](O)[C@H]%13O)[C@H](O)[C@H]%12O)[C@@H](O)[C@H](O)[C@H]%11O)CC[C@@]%10(C)[C@]9(C)CC[C@H]8C7(C)C)OC[C@H](O)[C@@H]6O)[C@@H]5O)[C@H](O)[C@@H]4O)O[C@@H]3CO)O[C@H](CO)[C@@H](O)[C@@H]2O[C@@H]2O[C@H](CO[C@@H]3O[C@@H](C)[C@H](O)[C@@H](O)[C@H]3O)[C@@H](O)[C@H](O)[C@H]2O)cc1O [CLEMATERNOSIDE E]	8.5	8.3
C[C@@H]1O[C@@H](O[C@H]2[C@H](O)[C@@H](O)[C@H](OC[C@H]3O[C@@H](OC(=O)[C@]45CCC(C)(C)C[C@H]4C4=CC[C@@H]6[C@@]7(C)CC[C@H](O[C@@H]8OC[C@H](O)[C@H](O)[C@H]8O[C@@H]8O[C@@H](C)[C@H](O)[C@@H](O[C@@H]9OC[C@@H](O[C@@H]%10O[C@H](CO)[C@@H](O[C@@H]%11O[C@H](CO)[C@@H](O)[C@H](O)[C@H]%11O)[C@H](O)[C@H]%10O)[C@@H](O)[C@H]9O)[C@H]8O)C(C)(C)[C@@H]7CC[C@@]6(C)[C@]4(C)CC5)[C@H](O)[C@@H](O)[C@@H]3O)O[C@@H]2CO)[C@H](O)[C@H](O)[C@H]1O [CLEMATOMANDSHURICA SAPONIN C]	> 50	> 50
C[C@@H]1O[C@@H](O[C@H]2[C@H](O)[C@@H](O)[C@H](OC[C@H]3O[C@@H](OC(=O)[C@]45CCC(C)(C)C[C@H]4C4=CC[C@@H]6[C@@]7(C)CC[C@H](O[C@@H]8OC[C@H](O)[C@H](O)[C@H]8O[C@@H]8O[C@@H](C)[C@H](O)[C@@H](O[C@@H]9OC[C@@H](O)[C@@H](O)[C@H]9O)[C@H]8O)C(C)(C)[C@@H]7CC[C@@]6(C)[C@]4(C)CC5)[C@H](O)[C@@H](O)[C@@H]3O)O[C@@H]2CO)[C@H](O)[C@H](O)[C@H]1O [HUZHANGOSIDE B]	> 50	> 50
C[C@@H]1O[C@@H](O[C@H]2[C@H](O)[C@@H](O)[C@H](OC[C@H]3O[C@@H](OC(=O)[C@]45CCC(C)(C)C[C@H]4C4=CC[C@@H]6[C@@]7(C)CC[C@H](O[C@@H]8OC[C@H](O)[C@H](O)[C@H]8O)[C@@](C)(CO)[C@@H]7CC[C@@]6(C)[C@]4(C)CC5)[C@H](O)[C@@H](O)[C@@H]3O)O[C@@H]2CO)[C@H](O)[C@H](O)[C@H]1O [CAULOSIDE D]	> 50	> 50
COc1ccc(/C=C/C(=O)O[C@H]2[C@H](O[C@H]3[C@H](O)[C@@H](O)[C@H](O[C@@H]4CO[C@@H](O[C@@H]5[C@@H](O)[C@H](C)O[C@@H](O[C@H]6[C@H](O[C@H]7CC[C@@]8(C)[C@@H](CC[C@]9(C)[C@@H]8CC=C8[C@@H]%10CC(C)(C)CC[C@]%10(C(=O)O[C@@H]%10O[C@H](CO[C@@H]%11O[C@H](CO)[C@@H](O[C@@H]%12O[C@@H](C)[C@H](O)[C@@H](O)[C@H]%12O)[C@H](O)[C@H]%11O)[C@@H](O)[C@H](O)[C@H]%10O)CC[C@]89C)[C@]7(C)CO)OC[C@@H](O)[C@@H]6O)[C@@H]5O)[C@H](O)[C@@H]4O)O[C@@H]3CO)O[C@H](CO)[C@@H](O)[C@@H]2O[C@@H]2O[C@H](CO[C@@H]3O[C@@H](C)[C@H](O)[C@@H](O)[C@H]3O)[C@@H](O[C@@H]3O[C@H](CO)[C@@H](O)[C@H](O)[C@H]3O)[C@H](O)[C@H]2O)cc1O [CLEMATOCHINENOSIDE C]	6.1	6.3
COc1ccc(/C=C/C(=O)O[C@H]2[C@H](O[C@H]3[C@H](O)[C@@H](O)[C@H](O[C@@H]4CO[C@@H](O[C@@H]5[C@@H](O)[C@H](C)O[C@@H](O[C@H]6[C@H](O[C@H]7CC[C@]8(C)[C@H]9CC=C%10[C@@H]%11CC(C)(C)CC[C@]%11(C(=O)O[C@@H]%11O[C@H](CO[C@@H]%12O[C@H](CO)[C@@H](O[C@@H]%13O[C@@H](C)[C@H](O)[C@@H](O)[C@H]%13O)[C@H](O)[C@H]%12O)[C@@H](O)[C@H](O)[C@H]%11O)CC[C@@]%10(C)[C@]9(C)CC[C@H]8C7(C)C)OC[C@H](O)[C@@H]6O)[C@@H]5O)[C@H](O)[C@@H]4O)O[C@@H]3CO)O[C@H](CO)[C@@H](O)[C@@H]2O[C@@H]2O[C@H](CO[C@@H]3O[C@@H](C)[C@H](O)[C@@H](O)[C@H]3O[C@@H]3O[C@H](CO)[C@@H](O)[C@H](O)[C@H]3O)[C@@H](O)[C@H](O)[C@H]2O)cc1O [CLEMATERNOSIDE K]	6.7	5.9
